The source of these data is US20250170224A1, “METHODS AND COMPOSITIONS FOR TREATING MICROGLIAL DYSFUNCTION AND IMPROVING METABOLIC DYSFUNCTION” (Ultimate Medicine AG, priority 2021, published 2025).

SMILES strings stand for the structures. Entries after “also recorded” stand apart in the source; their conditions may differ.

For series [1], the system named is bone marrow-derived macrophages (BMDMs). Description: Bone marrow derived macrophages incubated with increasing concentrations of CML for 48 hours. The format is cell-based, murine. The note with it: in vitro, increasing concentrations of CML (0.1 pM, 1 pM, 10 pM, 100 pM, 1 mM). The protocol:
Cells were cultured at 37° C. and 5% CO2 in a humidified incubator. Murine BMDMs were differentiated from tibial and femoral bone marrow aspirates. Recombinant murine macrophage colony-stimulating factor (Immunotools) was used at 20 ng ml^−1. After 7 days of differentiation, BMDMs were seeded in 24-well plates with 5×10^5 cells per well in triplicates. The medium was switched to serum-free medium 6 hours before the experiment. Cells were incubated with increasing concentrations of CML (untreated, 0.1 pM, 1 pM, 10 pM, 100 pM, 1 mM) for 48 hours, then collected for measurements.
Cell sorting for RT-qPCR and RNA sequencing (RNA-seq) was performed on a MoFlo Astrios (Beckman Coulter; FIG. 7a). Before surface staining, dead cells were excluded by using the Fixable Viability Dye eFluor 780 (1:1,000 dilution; Thermo Fisher Scientific) followed by incubation with Fc receptor blocking antibody CD16/CD32 (1:200 dilution, clone 2.4G2; BD Bioscience). The following antibodies were used for surface staining: anti-CD45 (1:200 dilution, clone 30-F11; Thermo Fisher Scientific); anti-CD11b (1:200 dilution, clone MI/70; Thermo Fisher Scientific). The following lineage antibodies were used (all at 1:300 dilution): anti-CD3 (clone 17A2; BioLegend); anti-CD19 (clone 6D5; BioLegend); anti-CD45R (clone RA3-6B2; BD Biosciences); Ly6C (clone AL-21; BD Biosciences); Ly6G (clone 1A8; BD Biosciences). […]

For series [2], the system named is microglia. The format is in vivo. Here is the method:
Mice of the aged group in the nontargeted metabolomics analysis were 17-18 months old. Except for nontargeted metabolomics and microbiota profiling, where only male mice were used, all groups included mice from both sexes. Mice were housed under a 12-hour light/12-hour dark cycle and temperatures of 18-23° C. with 40-60% humidity, with food and water given ad libitum. To avoid cage effects, mice from at least three different cages per experimental group were analyzed. […] For modulation of CML in aged animals, 18-month-old SPF housed C57BL/6 mice were treated orally every third day for 10 weeks with vehicle (20% hydroxypropyl-p-cyclodextrin in 1× phosphate-buffered saline (PBS)), 10 mg kg^−1 ellagic acid (EA) or 3,000 U kg^−1 intestinal alkaline phosphatase (IAP). To assess in vivo intestinal permeability, tracer fluorescein isothiocyanate (FITC)-labeled dextran (4 kDa: Sigma-Aldrich) was used. Briefly, mice were deprived of food 4 hours before and both food and water 4 hours after oral gavage using 200 μl of 80 mg ml^−1 FITC-dextran. Blood was collected retro-orbitally after 4 hours and fluorescence intensity was measured on fluorescence plates using an excitation wavelength of 493 nm and an emission wavelength of 518 nm. To assess in vivo intestinal permeability to CML, mice were treated with […] CML (0.36 mM). Blood was collected retro-orbitally immediately before and 4 hours after treatment. CML translocated into the circulation was measured by liquid chromatography-mass spectrometry (LC-MS). All animal experiments were approved by the local administration in Germany (Regierungsprasidium Freiburg) and were performed in accordance with the respective national, federal, and institutional regulations and the guidelines of the Federation of European Laboratory Animal Science Associations.
Mice were lethally anesthetized with ketamine (100 mg kg^−1 body weight) and xylazine (10 mg kg^−1 body weight) followed by perfusion with 1×PBS through the left heart chamber. For histology, brains were kept overnight in 4% paraformaldehyde (PFA). For flow cytometry and magnetic-activated cell sorting (MACS) beads cell sorting, brains were dissected, homogenized and filtered through a […] mesh. […] Myelin was removed from the top layer and the cell pellet was washed once with 1×PBS followed by antibody staining.
Brain specimens from the cortex were first fixed overnight in 3% glutaraldehyde at 4° C., washed with Sorensen buffer, and then transferred to 1% osmium tetroxide for 2 hours at room temperature. Next, samples were dehydrated by a graded series of ethanol (30-100%) followed by 100% propylene oxide, resin/propylene oxide (1:2 (v/v)) and resin/propylene oxide (2:1 (v/v)). Samples were embedded in resin via polymerization for 24 hours at 75° C. Then, 700-nm semithin sections were cut and stained with 2% toluidine blue to define the region of interest for further preparation of 70 nm ultrathin sections using an ultramicrotome (Leica Reichert Ultracut S) after contrasting the sections with uranyl acetate and lead citrate (Leica Reichert Ultrastainer). To assess the mitochondrial phenotype in microglia, images were acquired with a ×7,900 or ×46,000 magnification using a CM100 electron microscope (Philips).
Cell sorting for RT-qPCR and RNA sequencing (RNA-seq) was performed on a MoFlo Astrios (Beckman Coulter; FIG. 7a). Before surface staining, dead cells were excluded by using the Fixable Viability Dye eFluor 780 (1:1,000 dilution; Thermo Fisher Scientific) followed by incubation with Fc receptor blocking antibody CD16/CD32 (1:200 dilution, clone 2.4G2; BD Bioscience). […] To assess microglial cellular reactive oxidative species (ROS), the CellROX DeepRed Reagent ([…]; Thermo Fisher Scientific) was used. To assess mitochondrial activity, Tetramethylrhodamine, Methyl Ester, Perchlorate (50 nM; Thermo Fisher Scientific) and MitoTracker Green FM (20 nM; Thermo Fisher Scientific) were used.

Where [3] appears, read: young-adult mice, i.p. once per day for two weeks.

Take `N[C@@H](CCCCNCC(=O)O)C(=O)O` [CML, N^6-carboxymethyllysine]: in series [1], the “metabolic activity (mitochondrial activity) in BMDMs” value is “decreased metabolic activity” and the “oxidative stress (cellular ROS) in BMDMs” value is “dose-dependent increase in oxidative stress”. Besides, the “brain CML concentrations after intraperitoneal injection of CML” value in series [2] (young-adult SPF mice, targeted metabolomics) is recorded as “increased brain CML concentrations”. Also, the “damage to mitochondrial structures in microglia (electron microscopy)” value in series [2] (young-adult mice treated with CML i.p.) was “caused mitochondrial dysfunction by directly inflicting damage to mitochondrial structures”. Further, the “microglial gene expression (RNA-seq) after intraperitoneal injection” value in series [2] (young-adult mice, CML versus vehicle) was “upregulated the expression of the ROS-related genes S100a9 and S100A8; also recorded: upregulated the expression of the ROS-related genes, S100a9 and S100A8”. Besides, in series [2] (setting [3]), the “cellular ATP stores in microglia” value is “reduced cellular ATP stores”, the “metabolic function (metabolic/mitochondrial activity) of microglia” value was “decreased metabolic activity” and the “recapitulation of the changes found in the microglia of aged mice” value is given as “partially recapitulate the changes found in the microglia of aged mice”. Besides, in series [2] (young-adult mice, i.p. once per day for two weeks, CellROX), the “intracellular ROS production / oxidative stress in microglia” value is given as “increased oxidative stress”.
